Laboratory results as given in patent publication US6384208B1, “Sequence directed DNA binding molecules compositions and methods” (Genelabs Technologies, Inc., priority 1991, dated 2002).
Entries after “also recorded” stand apart in the source; their conditions may differ. Read-outs that look alike come from different tables or passages of the source. Starred links: 1 amine or outer side, 2 acyl side, 3 side chain; linkers in the order of their positions; H or OH if unused. Positions of bridges follow the written chain, without caps; N, C: chain ends. Non-standard residues stand in square brackets, D forms with d. Residues, ends and D or L forms follow the SMILES beside them. Chains are numbered I, II in the order given. Actinocin(9to1) = Cc1c2oc3c(C)ccc(C(=O)[*:1])c3nc-2c(C(=O)[*:2])c(N)c1=O; NMeV = CN[C@H](C(=O)O)C(C)C; Sar = CNCC(=O)O

Experiments:
[1] = test system: oligonucleotides containing the screening sequence (SEQ ID NO:601) flanked by a test sequence (SEQ ID NO:605 to SEQ ID NO:613); type: binding, Herpes Simplex Virus
[2] = test system: 256 different 4 bp sequences flanking the UL9 recognition site; type: binding, Herpes Simplex Virus
DNA = conditions: cited from earlier work; for published binding constant: bulk genomic DNA (average)

COc1cccc2c1C(=O)c1c(O)c3c(c(O)c1C2=O)C[C@@](O)(C(=O)CO)C[C@@H]3O[C@H]1C[C@H](N)[C@H](O)[C@H](C)O1 [Doxorubicin]
effect on DNA:protein complexes [1]: most DNA:protein complexes are nearly completely disrupted, with UL9 polyT and UL9ATAT showing some DNA still complexed with protein
effect on UL9 binding to the screening sequence [1]: strongly affected; also recorded: more mildly affected; also recorded: effects similar to those observed at 15 μM were also observed
test sequences at which UL9 binding to the screening sequence is preferentially disrupted [1]: preferentially disrupts the binding of UL9 to the oligonucleotides UL9 polyT, UL9 GGGC, oriEco2, and oriEco3

Cc1c2oc3c(C)ccc(C(=O)N[C@@H]4C(=O)N[C@H](C(C)C)C(=O)N5CCC[C@H]5C(=O)N(C)CC(=O)N(C)[C@@H](C(C)C)C(=O)O[C@@H]4C)c3nc-2c(C(=O)N[C@@H]2C(=O)N[C@H](C(C)C)C(=O)N3CCC[C@H]3C(=O)N(C)CC(=O)N(C)[C@@H](C(C)C)C(=O)O[C@@H]2C)c(N)c1=O [actinomycin D, Actinomycin D] (I: T[dV]P[Sar][NMeV] / II: T[dV]P[Sar][NMeV]; ester I:1-I:C, II:1-II:C; linker I:N-II:N via Actinocin(9to1))
test sequences at which UL9 binding to the screening sequence is preferentially disrupted [1]: preferentially disrupts the binding of UL9-COOH to the oligonucleotides UL9 CCCG (SEQ ID NO:605) and UL9 GGGC (SEQ ID NO:606); also recorded: preferentially disrupts the binding of UL9 to the oligonucleotides UL9 CCCG and UL9 GGGC
dinucleotide preference [2]: GC, particularly in the N1N2 position
mean r % score for all oligonucleotides [2]: 67%
overall sequence preference in the screen of all 256 sequences [2]: preference for binding GC-rich sequences; also recorded: prefers GC-rich sequences over AT-rich sequences
position effect of a single base in the test site [2]: a single base in any particular position has little impact on the binding
sequence binding preference [2]: a preference for binding GC-rich oligonucleotides has been observed; also recorded: this binding preference is even more apparent
reported preferred DNA binding sequence (DNA; literature): dGdC

Cn1cc(NC(=O)c2cc(NC(=O)c3cc(NC=O)cn3C)cn2C)cc1C(=O)NCCC(=N)N [distamycin, Distamycin A]
effect on DNA:protein complexes / free probe [1]: most of the DNA:protein complexes are intact (top band) with free probe appearing in the UL9 polyT and UL9 polyA lanes, and some free probe appearing in the UL9 ATAT lane; also recorded: free probe can be seen in the UL9 polyT and UL9 polyA lanes; also recorded: the DNA:protein in the polyT, UL9 polyA and UL9 ATAT lanes are near completely disrupted while some DNA:protein complexes in the other lanes persist
test sequences at which UL9 binding to the screening sequence is preferentially disrupted [1]: preferentially disrupts binding to the test sequences UL9 polyT, UL9 polyA and, to a lesser extent, UL9ATAT; also recorded: preferentially disrupts binding to UL9 polyT, UL9 polyA and UL9 ATAT
Ave. rank (actual) of the 18 sequences of the second consensus sequence [2]: 29
Average rank (actual) of the 16 sequences of the first consensus sequence [2]: 17
overall sequence preference in the screen of all 256 sequences [2]: preference for binding AT-rich sequences
second consensus sequence, favoured bases and order [2]: A/G/C and G/C/A and G/C and A>G=C and C>A=G and G=C
published binding constant (DNA): about 2×10^5 M^−1
published binding constant (DNA; listed as dista): 200000 M⁻¹
KA (binding to DNA) (DNA; literature): 200000 M⁻¹
reported preferred DNA binding sequence (DNA; literature): non-alternating AT-rich sequences

CS[C@H]1SC[C@H]2C(=O)N(C)[C@@H](C(C)C)C(=O)OC[C@@H](NC(=O)c3cnc4ccccc4n3)C(=O)N[C@@H](C)C(=O)N(C)[C@@H]1C(=O)N(C)[C@@H](C(C)C)C(=O)OC[C@@H](NC(=O)c1cnc3ccccc3n1)C(=O)N[C@@H](C)C(=O)N2C [echinomycin]
reported preferred DNA binding sequence (DNA; literature): [(A/T)CGT]/[ACG(A/T)]

calicheamicin
reported preferred DNA binding sequence (DNA; literature): TCCT/AGGA
